Experimental data reported in patent US20250161281A1, “EMOPAMIL-BINDING PROTEIN INHIBITORS AND USES THEREOF” (BIOGEN MA INC., priority 2022, published 2025).

Target: T1, EBP (Homo sapiens, UniProt Q15125)
T1 construct: HEK293T cells were utilized as the source of EBP enzyme; endogenous in cells; host or cells: HEK293T
Experiment: EBP Functional Assay (EBP immunoaffinity LC-MS assay)
Format: biochemical
Details: HEK293T cells as source of EBP enzyme; 30 min with inhibitor, then zymosterol-d5, 37° C. for 4 h; percent conversion by LC-APCI MRM MS
Description: The EBP immunoaffinity (IA) LC-MS assay measures the potency of small molecule inhibitors of EBP by quantifying their concentration-dependent changes in the enzyme's substrate and product using liquid chromatography atmospheric pressure chemical ionization multiple reaction monitoring mass spectrometry (LC-APCI MRM MS). HEK293T cells were utilized as the source of EBP enzyme. The enzyme was incubated with the small molecule inhibitors at variable concentrations for 30 min. Deuterated form of EBP substrate, zymosterol-d5 (Avanti Polar Lipids, Cat #700068P-1 mg), was then added and the plate was incubated at 37° C. for 4 h. Finally, the sterol isomers were extracted and injected to LC-APCI MRM MS. MRM transition used for the quantification for both zymosterol and dihydrolathosterol (substrate and product of EBP enzymatic reaction, respectively) is 372.3-203.2, CE 30 and DP 80 in positive ion mode. Percent conversion of the zymosterol-d5 to dehydrolathosterol-d5 was used to derive IC50 curves. Tasin-1 (1′-[(4-Methoxyphenyl)sulfonyl]-4-methyl-1,4′-bipiperidine, CAS 792927-06-1) was used as the reference small molecule inhibitor. Percent conversion versus the compound concentration data were fit to the following 4-parameter logistic model to generate IC50 curves: […]

T1 sequence (Q15125 whole entry): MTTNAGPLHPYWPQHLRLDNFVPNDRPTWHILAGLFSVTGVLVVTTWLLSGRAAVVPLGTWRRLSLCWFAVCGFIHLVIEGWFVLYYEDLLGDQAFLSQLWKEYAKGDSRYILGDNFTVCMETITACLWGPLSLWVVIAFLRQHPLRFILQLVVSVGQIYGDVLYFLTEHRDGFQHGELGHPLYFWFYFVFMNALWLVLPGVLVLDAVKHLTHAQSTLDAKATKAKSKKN

SMILES | IC50 [nM]
COCn1ncc(Cl)c1S(=O)(=O)N1[C@@H]2CC[C@H]1C[C@H](N1CCC(C)CC1)C2 [Example 4, (1R,3s,5S)-8-((4-Chloro-1-(methoxymethyl)-1H-pyrazol-5-yl)sulfonyl)-3-(4-methylpiperidin-1-yl)-8-azabicyclo[3.2.1]octane] | < 50
O=S(=O)(c1ccc(OC(F)F)cc1)N1[C@@H]2CC[C@H]1C[C@@H](NCC1(O)CCOCC1)C2 [Example 17, 4-((((1R,3r,5S)-8-((4-(Difluoromethoxy)phenyl)sulfonyl)-8-azabicyclo[3.2.1]octan-3-yl)amino)methyl)tetrahydro-2H-pyran-4-ol] | < 50
O=S(=O)(c1c(F)cc(OC(F)F)cc1F)N1[C@@H]2CC[C@H]1C[C@H](CN1CCOCC1)C2 [Example 35, 4-(((1R,3s,5S)-8-((4-(Difluoromethoxy)-2,6-difluorophenyl)sulfonyl)-8-azabicyclo[3.2.1]octan-3-yl)methyl)morpholine] | < 50
CC(C)(O)CN[C@H]1C[C@H]2CC[C@@H](C1)N2S(=O)(=O)c1ccc(OC(F)F)cc1 [Example 77, 1-(((1R,3r,5S)-8-((4-(Difluoromethoxy)phenyl)sulfonyl)-8-azabicyclo[3.2.1]octan-3-yl)amino)-2-methylpropan-2-ol] | 50 to 150
CC1CCN([C@@H]2C[C@H]3CC[C@@H](C2)N3S(=O)(=O)c2cnc(C3CCOCC3)o2)CC1 [Example 6, 5-(((1R,3s,5S)-3-(4-Methylpiperidin-1-yl)-8-azabicyclo[3.2.1]octan-8-yl)sulfonyl)-2-(tetrahydro-2H-pyran-4-yl)oxazole] | < 50
COC(C)C(C)NC1CC2CCC(C1)N2S(=O)(=O)c1ccc(OC(F)F)cc1 (centres unmarked) [Example 55, 8-((4-(Difluoromethoxy)phenyl)sulfonyl)-N-(3-methoxybutan-2-yl)-8-azabicyclo[3.2.1]octan-3-amine] | < 50
O=S(=O)(c1ccc(OC(F)F)cc1)N1C2CCC1CC(N1CC3CC(C3)C1)C2 (centres unmarked) [Example 57, 3-(8-((4-(Difluoromethoxy)phenyl)sulfonyl)-8-azabicyclo[3.2.1]octan-3-yl)-3-azabicyclo[3.1.1]heptane] | 50 to 150
Cc1nc(C(F)(F)F)ccc1S(=O)(=O)N1[C@@H]2CC[C@H]1C[C@H](NC1CC3(COC3)C1)C2 (single isomer, unassigned) [Example 68] | < 50
O=S(=O)(c1ccc(OC(F)F)cc1)N1[C@@H]2CC[C@H]1C[C@H](NCC1CCOCC1)C2 [Example 29, (1R,3s,5S)-8-((4-(Difluoromethoxy)phenyl)sulfonyl)-N-((tetrahydro-2H-pyran-4-yl)methyl)-8-azabicyclo[3.2.1]octan-3-amine] | < 50
CN(C1CCOCC1)[C@@H]1C[C@H]2CC[C@@H](C1)N2S(=O)(=O)c1ccc(OC(F)F)cc1 [Example 66, (1R,3s,5S)-8-((4-(difluoromethoxy)phenyl)sulfonyl)-N-methyl-N-(tetrahydro-2H-pyran-4-yl)-8-azabicyclo[3.2.1]octan-3-amine] | 150 to 2000
COCc1ccc(S(=O)(=O)N2[C@@H]3CC[C@H]2C[C@H](N2CCC(C)CC2)C3)o1 [Example 8, (1R,3s,5S)-8-((5-(Methoxymethyl)furan-2-yl)sulfonyl)-3-(4-methylpiperidin-1-yl)-8-azabicyclo[3.2.1]octane] | < 50
O=S(=O)(c1ccc(OC(F)F)cc1)N1C2CCC1CC(N1CCC3(COC3)C1)C2 (centres unmarked) [Example 51, 6-(8-((4-(Difluoromethoxy)phenyl)sulfonyl)-8-azabicyclo[3.2.1]octan-3-yl)-2-oxa-6-azaspiro[3.4]octane] | 150 to 2000
O=S(=O)(c1ccc(OC(F)F)cc1)N1[C@@H]2CC[C@H]1C[C@H](NCC1(O)CCOCC1)C2 [Example 18, 4-((((1R,3s,5S)-8-((4-(Difluoromethoxy)phenyl)sulfonyl)-8-azabicyclo[3.2.1]octan-3-yl)amino)methyl)tetrahydro-2H-pyran-4-ol] | < 50
CC1(CN[C@@H]2C[C@H]3CC[C@@H](C2)N3S(=O)(=O)c2ccc(OC(F)F)cc2)COC1 [Example 28, (1R,3s,5S)-8-((4-(Difluoromethoxy)phenyl)sulfonyl)-N-((3-methyloxetan-3-yl)methyl)-8-azabicyclo[3.2.1]octan-3-amine] | < 50
O=S(=O)(c1ccc(OC(F)F)cc1)N1[C@@H]2CC[C@H]1C[C@](O)(CN1CCOCC1)C2 [Example 33, (1R,3r,5S)-8-((4-(Difluoromethoxy)phenyl)sulfonyl)-3-(morpholinomethyl)-8-azabicyclo[3.2.1]octan-3-ol] | < 50
O=S(=O)(c1ccc(OC(F)F)cc1)N1C2CCC1CC(NCC1CC(O)C1)C2 (single isomer, unassigned) [Example 62] | 50 to 150

SMILES | IC50 [nM]
Cc1ccnc(-n2cc(S(=O)(=O)N3[C@@H]4CC[C@H]3C[C@H](N3CCC(C)CC3)C4)cn2)c1 [Example 41, (1R,3s,5S)-3-(4-Methylpiperidin-1-yl)-8-((1-(4-methylpyridin-2-yl)-1H-pyrazol-4-yl)sulfonyl)-8-azabicyclo[3.2.1]octane] | < 50
Cc1nc(C(F)(F)F)ccc1S(=O)(=O)N1[C@@H]2CC[C@H]1C[C@H](NC1CCOCC1)C2 [Example 75, (1R,3s,5S)-8-((2-Methyl-6-(trifluoromethyl)pyridin-3-yl)sulfonyl)-N-(tetrahydro-2H-pyran-4-yl)-8-azabicyclo[3.2.1]octan-3-amine] | 150 to 2000
O=S(=O)(c1ccc(OC(F)F)cc1)N1C2CCC1CC(N1C3CCCC1CC3)C2 (centres unmarked) [Example 53, 8-((4-(Difluoromethoxy)phenyl)sulfonyl)-8,8′-diaza-3,8′-bi(bicyclo[3.2.1]octane)] | 50 to 150
Cc1nc(C(F)(F)F)ccc1S(=O)(=O)N1[C@@H]2CC[C@H]1C[C@@H](NC1CC3(COC3)C1)C2 (single isomer, unassigned) [Example 69] | 50 to 150
CC1(O)CCN(C2CC3CCC(C2)N3S(=O)(=O)c2ccc(OC(F)F)cc2)C1 (centres unmarked) [Example 49, 1-(8-((4-(Difluoromethoxy)phenyl)sulfonyl)-8-azabicyclo[3.2.1]octan-3-yl)-3-methylpyrrolidin-3-ol] | 50 to 150
COCCC1CN(C2CC3CCC(C2)N3S(=O)(=O)c2ccc(OC(F)F)cc2)C1 (centres unmarked) [Example 54, 8-((4-(Difluoromethoxy)phenyl)sulfonyl)-3-(3-(2-methoxyethyl)azetidin-1-yl)-8-azabicyclo[3.2.1]octane] | 150 to 2000
Cc1noc(C)c1S(=O)(=O)N1[C@@H]2CC[C@H]1C[C@H](CN1CCOCC1)C2 [Example 38, 4-(((1R,3s,5S)-8-((3,5-Dimethylisoxazol-4-yl)sulfonyl)-8-azabicyclo[3.2.1]octan-3-yl)methyl)morpholine] | < 50
CC12CC(NC3CC4CCC(C3)N4S(=O)(=O)c3ccc(OC(F)F)cc3)(CO1)C2 (centres unmarked) [Example 30, 8-((4-(Difluoromethoxy)phenyl)sulfonyl)-N-(1-methyl-2-oxabicyclo[2.1.1]hexan-4-yl)-8-azabicyclo[3.2.1]octan-3-amine] | < 50
Cc1nonc1S(=O)(=O)N1[C@@H]2CC[C@H]1C[C@@H](N1CCC(C)CC1)C2 [Example 1, 3-Methyl-4-(((1R,3r,5S)-3-(4-methylpiperidin-1-yl)-8-azabicyclo[3.2.1]octan-8-yl)sulfonyl)-1,2,5-oxadiazole] | < 50
CC1CCN([C@@H]2C[C@H]3CC[C@@H](C2)N3S(=O)(=O)c2ccc3c(c2)COCC3)CC1 [Example 7, (1R,3s,5S)-8-(Isochroman-7-ylsulfonyl)-3-(4-methylpiperidin-1-yl)-8-azabicyclo[3.2.1]octane] | < 50
O=S(=O)(c1ccc(OC(F)F)cc1)N1C2CCC1CC(NCC1CCOCC1)C2 (centres unmarked) [Example 19, 8-((4-(Difluoromethoxy)phenyl)sulfonyl)-N-((tetrahydro-2H-pyran-4-yl)methyl)-8-azabicyclo[3.2.1]octan-3-amine] | < 50
Cc1ccc(S(=O)(=O)N2[C@@H]3CC[C@H]2C[C@H](N2CCC(C)CC2)C3)c(C)n1 [Example 47, (1R,3s,5S)-8-((2,6-Dimethylpyridin-3-yl)sulfonyl)-3-(4-methylpiperidin-1-yl)-8-azabicyclo[3.2.1]octane] | 50 to 150
CCn1nccc1S(=O)(=O)N1[C@@H]2CC[C@H]1C[C@H](N1CCC(C)CC1)C2 [Example 13, (1R,3s,5S)-8-((1-Ethyl-1H-pyrazol-5-yl)sulfonyl)-3-(4-methylpiperidin-1-yl)-8-azabicyclo[3.2.1]octane] | < 50
O=S(=O)(c1ccc(OC(F)F)cc1)N1[C@@H]2CC[C@H]1C[C@H](NCC1COC1)C2 [Example 31, (1R,3s,5S)-8-((4-(Difluoromethoxy)phenyl)sulfonyl)-N-(oxetan-3-ylmethyl)-8-azabicyclo[3.2.1]octan-3-amine] | < 50
Cc1cnc(S(=O)(=O)N2[C@@H]3CC[C@H]2C[C@H](N2CCC(C)CC2)C3)c(C)c1 [Example 46, (1R,3s,5S)-8-((3,5-Dimethylpyridin-2-yl)sulfonyl)-3-(4-methylpiperidin-1-yl)-8-azabicyclo[3.2.1]octane] | 150 to 2000
Cc1cc(S(=O)(=O)N2[C@@H]3CC[C@H]2C[C@@H](CN2CCOCC2)C3)n(C)n1 [Example 37, 4-(((1R,3r,5S)-8-((1,3-Dimethyl-1H-pyrazol-5-yl)sulfonyl)-8-azabicyclo[3.2.1]octan-3-yl)methyl)morpholine] | < 50
